The results in this text go back to ChEMBL document CHEMBL3351299, “Structural insights on carbonic anhydrase inhibitory action, isoform selectivity, and potency of sulfonamides and coumarins incorporating arylsulfonylureido groups” (J Med Chem, 2014).

The target of one test is Carbonic anhydrase 12 (Homo sapiens, UniProt O43570). Kind of test: Inhibition of human recombinant carbonic anhydrase 12 preincubated for 15 mins by stopped flow CO2 hydration method.
The target of a further test is Carbonic anhydrase 1 (Homo sapiens, UniProt P00915). Briefly: Inhibition of human recombinant carbonic anhydrase 1 preincubated for 15 mins by stopped flow CO2 hydration method.
Sequence of Carbonic anhydrase 1 (P00915 whole entry): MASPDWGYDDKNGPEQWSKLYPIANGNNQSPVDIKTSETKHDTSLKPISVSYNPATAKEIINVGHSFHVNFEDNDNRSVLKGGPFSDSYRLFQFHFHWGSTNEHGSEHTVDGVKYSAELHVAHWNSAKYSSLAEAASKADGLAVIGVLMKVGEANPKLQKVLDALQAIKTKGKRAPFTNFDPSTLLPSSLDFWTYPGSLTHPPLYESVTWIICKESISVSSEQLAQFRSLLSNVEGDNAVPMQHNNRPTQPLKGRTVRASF
The target of a further test is Carbonic anhydrase 9 (Homo sapiens, UniProt Q16790).

Structures are written as SMILES. Some results are limits rather than exact numbers.

Sequence of Carbonic anhydrase 12 (O43570 whole entry): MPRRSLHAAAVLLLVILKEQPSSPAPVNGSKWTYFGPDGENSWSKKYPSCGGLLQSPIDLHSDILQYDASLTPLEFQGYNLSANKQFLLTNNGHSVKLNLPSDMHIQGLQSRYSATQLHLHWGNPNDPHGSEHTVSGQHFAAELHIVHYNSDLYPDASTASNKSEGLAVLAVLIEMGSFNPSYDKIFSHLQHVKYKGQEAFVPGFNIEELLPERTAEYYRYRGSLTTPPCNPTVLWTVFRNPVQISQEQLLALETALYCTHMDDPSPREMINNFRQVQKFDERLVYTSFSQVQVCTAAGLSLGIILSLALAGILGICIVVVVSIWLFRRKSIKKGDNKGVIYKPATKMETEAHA

On to `Cc1cc(=O)oc2cc(NC(=O)NS(=O)(=O)c3ccccc3)ccc12`, for which the values for the Ki at Carbonic anhydrase 12, at Carbonic anhydrase 1 and on Carbonic anhydrase 9 were 68.5 nM, more than 10000 nM and 90.7 nM, respectively.
The matching figures for `NS(=O)(=O)c1ccc(CCNC(=O)NS(=O)(=O)c2ccc(F)cc2)cc1`: 6.8 nM, 82.6 nM and 68.4 nM.
Turning to `Cc1ccccc1S(=O)(=O)NC(=O)NCCc1ccc(S(N)(=O)=O)cc1`, the inhibitory constant (Ki) (in general, the equilibrium dissociation constant of an inhibitor or competing ligand from its target) on Carbonic anhydrase 12 is 6.4 nM; on Carbonic anhydrase 1 it was 64.2 nM.
Take `NS(=O)(=O)c1ccc(CCNC(=O)NS(=O)(=O)c2ccccc2Cl)cc1`: the Ki worked out at 5.1 nM at Carbonic anhydrase 12, 52.8 nM on Carbonic anhydrase 1 and 78.9 nM at Carbonic anhydrase 9.
The matching figures for `NS(=O)(=O)c1ccc(CCNC(=O)NS(=O)(=O)c2ccc(Cl)cc2)cc1`: 5.6 nM, 57.8 nM and 9.7 nM.
The matching figures for `Cc1cc(=O)oc2cc(NC(=O)NS(=O)(=O)c3ccccc3Cl)ccc12`: 7.6 nM, 2380 nM and 87.8 nM.
`Cc1ccc(S(=O)(=O)NC(=O)NCCc2ccc(S(N)(=O)=O)cc2)cc1`: the Ki at Carbonic anhydrase 12 came to 6 nM; at Carbonic anhydrase 1, 67.1 nM; at Carbonic anhydrase 9 it was 9.2 nM.
The corresponding values for `NS(=O)(=O)c1ccc(CCNC(=O)NS(=O)(=O)c2ccccc2)cc1` are 5.9 nM, 21.6 nM and 9.6 nM.
For the compound `Cc1ccc(S(=O)(=O)NC(=O)Nc2ccc3c(C)cc(=O)oc3c2)cc1`, the Ki is 9.4 nM on Carbonic anhydrase 12 and more than 10000 nM on Carbonic anhydrase 1.
For the compound `Cc1ccccc1S(=O)(=O)NC(=O)Nc1ccc2c(C)cc(=O)oc2c1`, the Ki at Carbonic anhydrase 12 was found to be 8.9 nM; on Carbonic anhydrase 1, 4970 nM.
As for `Cc1cc(=O)oc2cc(NC(=O)NS(=O)(=O)c3ccc(F)cc3)ccc12`, the Ki at Carbonic anhydrase 12 is 7.7 nM; at Carbonic anhydrase 1, more than 10000 nM; at Carbonic anhydrase 9, 23.1 nM.
Turning to `Cc1cc(=O)oc2cc(NC(=O)NS(=O)(=O)c3ccc(Cl)cc3)ccc12`, the Ki at Carbonic anhydrase 1 is 5730 nM.
